Laboratory results as given in US4311700A, “Pyrimidobenzodiazepinones, their use and medicaments containing them” (priority 1979, dated 1982).

Key:
Shay rats = assay: Antiulcerogenic action (protective action on the stomach) in Shay rats, pylorus ligature plus acetylsalicylic acid; type: in vivo, rat; conditions: for TQ LD50/ED50 (therapeutic quotient): LD50 i.v. mice / ED50 p.o. rats; for ED50: Rattus norvegicus, po, p.o. 1 hour before pylorus ligature, dose reducing ulcer index by 50% vs control, read-out: Protective action on the stomach ED50 administered perorally to rats
Experimental: The effect of the compounds according to the invention on the formation, in rats, of gastric ulcers provoked by a pylorus ligature and 100 mg/kg of acetylsalicyclic acid, (administered orally) is shown in table II.
ED50 = the dose which reduces the ulcer index for the group treated
by 50% compared with the control group
The anti-ulcerogenic action is tested by a method using the so-caled Shay rats:
(§1) Ulcers are provoked in rats which have been starved for 24 hours (female rats, 180 to 200 g, 4 animals in a cage with a high grille) by means of a pylorus ligature (under anaesthesia with diethyl ether) and oral administration of 100 mg/10 ml/kg of acetylsalicyclic acid. The substances to be tested are administered orally (10 ml/kg) 1 hour before the pylorus ligature. The closure of the wound is effected by means of Michel's clips. The animals are killed 4 hours afterwards under ether anaesthesia by dislocating the atlas, and the stomach is cut out. The stomach is opened longitudinally and is fixed on a cork slab, the quantity of gastric juice secreted (volume) and the hydrochloric acid content having been determined beforehand; the number and size (= diameter) of ulcers present are determined by means of a stereomicroscope at a 10-fold magnification. The product of the degree of severity (in accordance with the following rating scale) and the number of the ulcers is used as an individual ulcer index.
ulcer diameter 0.1-1.4 mm
The reduction in the average ulcer index in each group treated compared with that of the control group (=100%) is used as a measure of the anti-ulcerogenic effect. The ED50 indicates the dose which reduces the average ulcer index by 50%.

stomach secretion = assay: Inhibition of stomach secretion (volume and hydrochloric acid) in rats; type: in vivo, rat; conditions: 4 hours after administration of the antiulcerogenic ED50
Experimental: *% inhibition = inhibition (in %) of stomach secretion 4 hours after
administration of the antiulcerogenic ED50
as §1

[1] = Determination of toxicity, intravenous, mice; conditions: mouse, in vivo, i.v., female NMRI mice, 7 days observation, read-out: Toxicity LD50 administered intravenously to mice
Experimental: LD50 = the dose at which 50% of the animals die
The toxicity investigations are carried out on female NMRI mice (body weight 22 to 26 g). The animals (5 animals per dose) receive feed and water ad lib. Various doses of the substances are administered intravenously (duration of injection 1 minute). The observation period is 7 days. The LD50 (the dose at which 50% of the animals die) is determined by means of a linear regression.

With `CN1C(=O)c2cnc(-c3ccccc3)nc2N(C(=O)CN2CCCCC2)c2ccccc21` [Compound 4, 6-Methyl-2-phenyl-11-piperidinoacetyl-5,6-dihydropyrimido[4,5-b][1,5]benzodiazepin-5-one] the “TQ LD50/ED50 (therapeutic quotient)” value (Shay rats) was ~ 20, the ED50 (Shay rats) was roughly 8 mg/kg and the “% inhibition of stomach secretion in rats, hydrochloric acid” value (from here on “% inhibition … hydrochloric acid”) (stomach secretion) was 22%. The “% inhibition of stomach secretion in rats, volume” value (“% inhibition … volume” for short) (stomach secretion) was 32% and the LD50 at 168 h [1] was 160 mg/kg.

For `CN1CCN(CC(=O)N2c3ccccc3NC(=O)c3cncnc32)CC1` [Compound 2, 11-[(4-Methyl-1-piperazinyl)acetyl]-5,6-dihydropyrimido[4,5-b][1,5]benzodiazepin-5-one], the “TQ LD50/ED50 (therapeutic quotient)” value (Shay rats) was 15, the ED50 (Shay rats) was 12 mg/kg and the “% inhibition … hydrochloric acid” value (stomach secretion) was 5%. The “% inhibition … volume” value (stomach secretion) was 10% and the LD50 at 168 h [1] was 180 mg/kg.

In the case of `CN1CCN(CC(=O)N2c3ccccc3N(C)C(=O)c3cnc(-c4ccccc4)nc32)CC1` [Compound 3, 6-Methyl-11-[(4-methyl-1-piperazinyl)acetyl]-2-phenyl-5,6-dihydropyrimido[4,5-b][1,5]benzodiazepin-5-one], the “TQ LD50/ED50 (therapeutic quotient)” value (Shay rats) is reported as 10.5, the ED50 (Shay rats) is reported as 9 mg/kg and the “% inhibition … volume” value (stomach secretion) is reported as 7%. For the same compound, the LD50 at 168 h [1] was 95 mg/kg.

With `CC1(C)[C@@H](OC(=O)CCC(=O)O)CC[C@]2(C)[C@H]3C(=O)C=C4[C@@H]5C[C@@](C)(C(=O)O)CC[C@]5(C)CC[C@@]4(C)[C@]3(C)CC[C@@H]12` [Compound 1, Carbenoxolone, reference compound] the “TQ LD50/ED50 (therapeutic quotient)” value (Shay rats) was ~ 4.1, the ED50 (Shay rats) was roughly 70 mg/kg and the “anti-ulcerogenic action at high dose” value (Shay rats; even at 300 mg/kg, rats) was “not possible to achieve any substantial increase in the anti-ulcerogenic action”. The “dose/action curve (dose dependence of the action)” value (Shay rats; rats, p.o.) was “the dose/action curve then flattens out very considerably”, the “% inhibition … hydrochloric acid” value (stomach secretion) was 4% and the “% inhibition … volume” value (stomach secretion) was 7%. The LD50 at 168 h [1] was 290 mg/kg.

For `CN(C)CCN(C)CC(=O)N1c2ccccc2N(C)C(=O)c2cnc(-c3ccccc3)nc21` [Compound 5, 11-[N-(2-dimethylaminoethyl)-N-methylamino]acetyl-6-methyl-2-phenyl-5,6-dihydropyrimido[4,5-b][1,5]benzodiazepin-5-one], the “inhibitory effect (anti-ulcerogenic action)” value (Shay rats; 30 mg/kg, p.o., rats) was “up to 100%” and the ED50 (Shay rats) was less than 10 mg/kg.
